Source: BindingDB's records for doi:10.1002/cbic.200600287 (Mcgill University, 2007)
pIC50: −log10 of the molar value.

Legend:
Assay in all cases: PTP Assay
[1] = molecular target: T1, Tyrosine-protein phosphatase non-receptor type 1 (Homo sapiens, UniProt P18031); settings: 25 °C
T1 sequence (P18031 whole entry): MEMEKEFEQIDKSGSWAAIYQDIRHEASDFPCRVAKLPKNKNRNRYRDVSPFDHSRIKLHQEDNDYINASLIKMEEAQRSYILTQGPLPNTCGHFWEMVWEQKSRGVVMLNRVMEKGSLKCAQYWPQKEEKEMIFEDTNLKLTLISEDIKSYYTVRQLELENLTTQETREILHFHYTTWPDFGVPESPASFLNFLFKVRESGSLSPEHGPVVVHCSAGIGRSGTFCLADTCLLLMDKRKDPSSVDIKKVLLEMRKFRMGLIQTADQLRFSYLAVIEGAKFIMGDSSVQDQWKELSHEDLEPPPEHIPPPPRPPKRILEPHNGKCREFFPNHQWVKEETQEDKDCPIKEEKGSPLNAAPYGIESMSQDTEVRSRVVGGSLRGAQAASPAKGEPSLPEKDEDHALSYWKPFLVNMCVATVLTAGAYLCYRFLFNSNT
Experimental: (§1) PTP assay were conducted at 25 C in 96-well plates. Reaction rates were determined using a Variokan plate reader from Thermo Electron. For assay pH 7.0 absorbance was measured every 30s over 10 min and the reaction rates were calculated by linear regression. Because the p-nitrophenol product does not absorb at pH 6.0.

[2] = molecular target: Receptor-type tyrosine-protein phosphatase F (Homo sapiens, UniProt P10586); settings: pH 6; 25 °C
Experimental: as §1

[3] = molecular target: Tyrosine-protein phosphatase non-receptor type 13 (Homo sapiens, UniProt Q12923); settings: pH 7; 25 °C
Experimental: as §1

[4] = molecular target: T2, Dual specificity protein phosphatase 22 (Homo sapiens, UniProt Q9NRW4); settings: pH 6; 25 °C
T2 sequence (Q9NRW4 whole entry): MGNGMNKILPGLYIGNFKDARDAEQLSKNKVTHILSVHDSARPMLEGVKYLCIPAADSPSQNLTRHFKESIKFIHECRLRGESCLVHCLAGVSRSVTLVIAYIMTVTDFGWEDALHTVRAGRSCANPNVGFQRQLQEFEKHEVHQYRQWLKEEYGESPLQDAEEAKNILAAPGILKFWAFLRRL
Experimental: as §1

[5] = molecular target: T3, Tyrosine-protein phosphatase non-receptor type 2 (Homo sapiens, UniProt P17706); settings: pH 7; 25 °C
T3 sequence (P17706 whole entry): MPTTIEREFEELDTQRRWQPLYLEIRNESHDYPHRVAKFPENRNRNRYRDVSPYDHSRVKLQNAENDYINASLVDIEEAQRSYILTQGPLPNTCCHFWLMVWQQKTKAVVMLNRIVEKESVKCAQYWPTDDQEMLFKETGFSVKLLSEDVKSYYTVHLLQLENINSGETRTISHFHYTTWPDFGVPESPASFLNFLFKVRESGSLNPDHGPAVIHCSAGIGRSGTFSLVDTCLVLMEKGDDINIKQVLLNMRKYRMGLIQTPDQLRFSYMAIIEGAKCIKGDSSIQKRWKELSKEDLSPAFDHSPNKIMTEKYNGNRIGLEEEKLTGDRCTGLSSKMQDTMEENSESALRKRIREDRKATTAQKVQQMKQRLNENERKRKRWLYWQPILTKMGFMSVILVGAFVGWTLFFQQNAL
Experimental: as §1

[6] = molecular target: T4, Tyrosine-protein phosphatase non-receptor type 7 (Homo sapiens, UniProt P35236); settings: pH 7; 25 °C
T4 sequence (P35236 whole entry): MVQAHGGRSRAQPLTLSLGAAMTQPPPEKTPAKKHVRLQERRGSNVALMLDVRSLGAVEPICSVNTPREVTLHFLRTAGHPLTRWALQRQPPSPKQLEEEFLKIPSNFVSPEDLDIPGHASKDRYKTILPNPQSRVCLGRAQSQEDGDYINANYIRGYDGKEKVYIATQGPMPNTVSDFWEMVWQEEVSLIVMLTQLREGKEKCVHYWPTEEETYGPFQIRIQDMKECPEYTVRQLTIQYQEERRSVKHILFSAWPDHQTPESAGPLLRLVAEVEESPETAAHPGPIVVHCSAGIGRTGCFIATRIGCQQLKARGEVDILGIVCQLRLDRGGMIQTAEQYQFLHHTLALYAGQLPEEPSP
Experimental: as §1

[7] = molecular target: Tyrosine-protein phosphatase non-receptor type 6 (Homo sapiens, UniProt P29350); settings: pH 7; 25 °C
Experimental: as §1

Receptor-type tyrosine-protein phosphatase F, sequence (P10586 whole entry): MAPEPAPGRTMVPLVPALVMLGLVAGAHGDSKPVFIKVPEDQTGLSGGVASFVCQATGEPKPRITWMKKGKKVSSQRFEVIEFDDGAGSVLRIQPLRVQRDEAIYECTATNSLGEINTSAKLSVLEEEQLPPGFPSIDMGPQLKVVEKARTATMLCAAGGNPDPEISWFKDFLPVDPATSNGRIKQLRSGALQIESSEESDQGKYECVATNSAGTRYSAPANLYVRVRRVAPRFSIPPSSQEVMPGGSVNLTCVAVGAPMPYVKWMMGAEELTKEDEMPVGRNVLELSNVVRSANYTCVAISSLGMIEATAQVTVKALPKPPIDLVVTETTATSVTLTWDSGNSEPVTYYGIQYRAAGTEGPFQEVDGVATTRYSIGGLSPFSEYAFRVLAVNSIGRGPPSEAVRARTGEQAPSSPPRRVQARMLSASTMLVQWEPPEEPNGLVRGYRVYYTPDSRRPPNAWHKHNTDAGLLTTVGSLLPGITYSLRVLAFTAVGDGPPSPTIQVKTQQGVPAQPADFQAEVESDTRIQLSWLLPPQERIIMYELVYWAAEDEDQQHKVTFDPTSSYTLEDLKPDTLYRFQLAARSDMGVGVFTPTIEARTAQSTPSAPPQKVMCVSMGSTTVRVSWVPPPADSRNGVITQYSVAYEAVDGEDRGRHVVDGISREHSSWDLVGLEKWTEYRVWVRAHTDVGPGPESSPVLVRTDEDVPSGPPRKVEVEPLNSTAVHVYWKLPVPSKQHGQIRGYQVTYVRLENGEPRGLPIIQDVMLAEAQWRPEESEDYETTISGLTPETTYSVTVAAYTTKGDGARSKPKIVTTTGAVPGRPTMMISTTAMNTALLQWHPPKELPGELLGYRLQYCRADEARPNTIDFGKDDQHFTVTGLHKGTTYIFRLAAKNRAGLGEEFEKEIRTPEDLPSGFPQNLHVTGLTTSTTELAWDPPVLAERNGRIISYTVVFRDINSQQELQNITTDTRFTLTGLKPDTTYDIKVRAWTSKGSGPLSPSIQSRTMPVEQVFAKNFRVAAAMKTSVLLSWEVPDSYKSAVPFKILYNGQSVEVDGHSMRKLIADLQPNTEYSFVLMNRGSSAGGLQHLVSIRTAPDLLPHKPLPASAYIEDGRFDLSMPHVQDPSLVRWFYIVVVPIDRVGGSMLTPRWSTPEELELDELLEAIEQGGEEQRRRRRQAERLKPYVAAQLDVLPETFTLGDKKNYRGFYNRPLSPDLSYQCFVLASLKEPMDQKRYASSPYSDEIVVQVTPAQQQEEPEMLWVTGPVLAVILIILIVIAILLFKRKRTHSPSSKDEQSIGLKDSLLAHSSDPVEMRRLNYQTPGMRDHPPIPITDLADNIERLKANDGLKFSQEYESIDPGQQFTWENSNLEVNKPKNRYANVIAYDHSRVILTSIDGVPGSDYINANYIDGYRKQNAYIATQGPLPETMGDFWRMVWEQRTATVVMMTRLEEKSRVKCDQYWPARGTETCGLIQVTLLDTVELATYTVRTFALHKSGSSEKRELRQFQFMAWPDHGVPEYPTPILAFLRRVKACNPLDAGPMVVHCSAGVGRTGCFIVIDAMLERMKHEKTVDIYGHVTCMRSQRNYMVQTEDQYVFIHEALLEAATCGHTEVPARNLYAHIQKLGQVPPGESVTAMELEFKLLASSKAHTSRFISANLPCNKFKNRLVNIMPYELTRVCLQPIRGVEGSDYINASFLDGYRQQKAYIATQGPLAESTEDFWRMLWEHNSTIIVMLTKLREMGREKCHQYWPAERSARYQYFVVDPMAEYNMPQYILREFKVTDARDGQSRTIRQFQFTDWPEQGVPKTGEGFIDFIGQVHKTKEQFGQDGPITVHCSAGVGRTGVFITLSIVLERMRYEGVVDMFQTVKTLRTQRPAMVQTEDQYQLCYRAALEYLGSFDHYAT
Tyrosine-protein phosphatase non-receptor type 6, sequence (P29350 whole entry): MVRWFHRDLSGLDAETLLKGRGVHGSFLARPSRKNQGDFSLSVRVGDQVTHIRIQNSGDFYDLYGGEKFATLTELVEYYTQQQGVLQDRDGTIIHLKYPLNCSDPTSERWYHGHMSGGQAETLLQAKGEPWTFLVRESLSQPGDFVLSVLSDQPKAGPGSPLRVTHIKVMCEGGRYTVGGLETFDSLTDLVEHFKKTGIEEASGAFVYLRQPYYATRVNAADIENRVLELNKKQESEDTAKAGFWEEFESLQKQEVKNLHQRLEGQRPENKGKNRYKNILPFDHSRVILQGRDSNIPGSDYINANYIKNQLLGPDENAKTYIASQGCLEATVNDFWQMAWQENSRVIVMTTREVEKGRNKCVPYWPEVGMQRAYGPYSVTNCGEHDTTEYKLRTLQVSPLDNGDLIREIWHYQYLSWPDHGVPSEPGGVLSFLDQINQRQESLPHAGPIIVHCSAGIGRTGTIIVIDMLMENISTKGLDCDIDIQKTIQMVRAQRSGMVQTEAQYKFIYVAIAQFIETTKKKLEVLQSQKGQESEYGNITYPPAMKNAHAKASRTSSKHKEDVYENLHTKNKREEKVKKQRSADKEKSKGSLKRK
Tyrosine-protein phosphatase non-receptor type 13, sequence (Q12923 whole entry): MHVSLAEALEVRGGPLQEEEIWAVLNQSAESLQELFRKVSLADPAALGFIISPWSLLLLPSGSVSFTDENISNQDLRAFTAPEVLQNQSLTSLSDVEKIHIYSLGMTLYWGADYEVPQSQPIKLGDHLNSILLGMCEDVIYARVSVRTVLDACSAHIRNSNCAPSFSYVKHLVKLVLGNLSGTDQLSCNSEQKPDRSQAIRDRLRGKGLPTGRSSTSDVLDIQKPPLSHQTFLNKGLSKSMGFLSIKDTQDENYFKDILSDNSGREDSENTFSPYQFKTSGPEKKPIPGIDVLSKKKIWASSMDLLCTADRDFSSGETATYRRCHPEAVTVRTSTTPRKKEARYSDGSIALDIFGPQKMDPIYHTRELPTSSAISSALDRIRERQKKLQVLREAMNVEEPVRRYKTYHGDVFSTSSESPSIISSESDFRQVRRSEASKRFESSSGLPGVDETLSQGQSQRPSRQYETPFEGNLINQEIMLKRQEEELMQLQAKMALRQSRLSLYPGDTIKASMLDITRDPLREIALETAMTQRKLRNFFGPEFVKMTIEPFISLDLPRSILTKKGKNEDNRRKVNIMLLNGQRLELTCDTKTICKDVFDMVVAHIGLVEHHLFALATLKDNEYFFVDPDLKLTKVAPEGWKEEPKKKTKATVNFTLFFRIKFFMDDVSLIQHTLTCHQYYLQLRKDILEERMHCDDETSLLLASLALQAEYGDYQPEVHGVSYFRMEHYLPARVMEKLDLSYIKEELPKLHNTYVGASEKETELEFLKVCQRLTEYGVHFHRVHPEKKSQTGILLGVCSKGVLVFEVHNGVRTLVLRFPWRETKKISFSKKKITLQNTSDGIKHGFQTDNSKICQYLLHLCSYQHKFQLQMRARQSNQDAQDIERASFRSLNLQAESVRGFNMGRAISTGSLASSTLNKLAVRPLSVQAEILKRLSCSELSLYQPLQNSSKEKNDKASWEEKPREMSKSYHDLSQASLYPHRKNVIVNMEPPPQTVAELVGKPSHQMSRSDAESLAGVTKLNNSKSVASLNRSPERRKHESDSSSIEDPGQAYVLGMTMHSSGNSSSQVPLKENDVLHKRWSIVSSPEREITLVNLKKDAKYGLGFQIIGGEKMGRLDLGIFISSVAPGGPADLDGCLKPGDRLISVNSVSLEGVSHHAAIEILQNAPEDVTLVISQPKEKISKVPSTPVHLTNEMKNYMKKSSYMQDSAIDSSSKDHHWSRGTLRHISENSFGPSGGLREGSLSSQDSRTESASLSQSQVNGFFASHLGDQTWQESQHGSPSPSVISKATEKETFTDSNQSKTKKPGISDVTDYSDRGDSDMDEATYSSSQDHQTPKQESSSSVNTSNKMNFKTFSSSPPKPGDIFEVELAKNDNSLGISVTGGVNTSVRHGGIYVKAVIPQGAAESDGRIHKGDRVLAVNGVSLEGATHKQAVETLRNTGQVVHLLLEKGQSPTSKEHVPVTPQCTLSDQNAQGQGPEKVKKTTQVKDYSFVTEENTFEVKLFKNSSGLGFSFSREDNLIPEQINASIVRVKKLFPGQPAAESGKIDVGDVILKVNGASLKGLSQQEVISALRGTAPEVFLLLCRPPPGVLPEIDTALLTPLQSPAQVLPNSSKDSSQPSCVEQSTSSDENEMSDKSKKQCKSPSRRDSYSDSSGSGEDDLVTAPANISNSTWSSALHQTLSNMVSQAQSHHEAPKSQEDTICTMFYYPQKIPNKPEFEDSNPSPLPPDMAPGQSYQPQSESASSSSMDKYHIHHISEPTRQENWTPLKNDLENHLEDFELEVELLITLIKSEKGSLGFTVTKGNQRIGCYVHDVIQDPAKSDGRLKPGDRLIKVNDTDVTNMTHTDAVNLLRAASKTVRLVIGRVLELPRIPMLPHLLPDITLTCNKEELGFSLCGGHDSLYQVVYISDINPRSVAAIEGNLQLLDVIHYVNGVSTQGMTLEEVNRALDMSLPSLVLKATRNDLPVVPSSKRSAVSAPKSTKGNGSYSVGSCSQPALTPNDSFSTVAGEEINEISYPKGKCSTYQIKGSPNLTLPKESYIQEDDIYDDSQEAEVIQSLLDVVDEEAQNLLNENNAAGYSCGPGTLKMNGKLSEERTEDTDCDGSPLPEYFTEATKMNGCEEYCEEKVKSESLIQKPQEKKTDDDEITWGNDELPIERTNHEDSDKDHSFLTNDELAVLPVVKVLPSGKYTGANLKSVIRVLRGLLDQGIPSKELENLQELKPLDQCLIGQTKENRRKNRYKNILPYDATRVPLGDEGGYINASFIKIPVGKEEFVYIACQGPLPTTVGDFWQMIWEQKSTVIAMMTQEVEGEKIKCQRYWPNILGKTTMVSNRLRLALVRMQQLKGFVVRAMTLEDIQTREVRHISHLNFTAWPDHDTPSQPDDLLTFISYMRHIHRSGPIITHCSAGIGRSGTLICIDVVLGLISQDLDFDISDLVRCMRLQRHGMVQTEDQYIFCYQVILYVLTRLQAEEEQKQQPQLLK

SMILES	pIC50 [1]	further results
O=C1/C(=C/c2cc(O)c(O)c([N+](=O)[O-])c2)SC(=S)N1c1cccc(Cl)c1 [Thioxothiazolidinone derivative, 15]	4.74	
COc1cc(/C=C2\SC(=S)N(c3ccc(C)cc3)C2=O)cc([N+](=O)[O-])c1O [Thioxothiazolidinone derivative, 9]	5.06	
COc1ccc(N2C(=O)/C(=C/c3cc(OC)c(O)c([N+](=O)[O-])c3)SC2=S)cc1 [Thioxothiazolidinone derivative, 10]	5.20	
COc1cc(/C=C2\SC(=S)N(c3cccc(Cl)c3)C2=O)ccc1O [Thioxothiazolidinone derivative, 14]	4.36	
COc1cc(/C=C2\SC(=S)N(c3ccc(O)cc3)C2=O)cc([N+](=O)[O-])c1O [Thioxothiazolidinone derivative, 8]	4.54	
COc1cc(/C=C2\SC(=S)N(c3cccc(F)c3)C2=O)cc([N+](=O)[O-])c1O [Thioxothiazolidinone derivative, 5]	4.92	
COc1cccc(N2C(=O)/C(=C/c3cc(OC)c(O)c([N+](=O)[O-])c3)SC2=S)c1 [Thioxothiazolidinone derivative, 7]	4.80	
O=C1/C(=C/c2ccc(O)c([N+](=O)[O-])c2)SC(=S)N1c1cccc(Cl)c1 [Thioxothiazolidinone derivative, 13]	4.17	
COc1cc(/C=C2\SC(=S)N(c3cccc(C)c3)C2=O)cc([N+](=O)[O-])c1O [Thioxothiazolidinone derivative, 6]	4.54	
COc1cc(/C=C2\SC(=S)N(c3ccc(Cl)c(Cl)c3)C2=O)cc([N+](=O)[O-])c1O [Thioxothiazolidinone derivative, 12]	5.15	
COc1cc(/C=C2\SC(=S)N(c3ccccc3)C2=O)cc([N+](=O)[O-])c1O [Thioxothiazolidinone derivative, 3]	< 4.00	
COc1cc(C=C2SC(=S)N(c3cccc(Cl)c3)C2=O)cc(CP(=O)(O)O)c1O [Thioxothiazolidinone derivative, 18]	< 4.00	
COc1cc(/C=C2\SC(=S)N(c3ccc([N+](=O)[O-])cc3)C2=O)cc([N+](=O)[O-])c1O [Thioxothiazolidinone derivative, 11]	5.15	
COc1cc(/C=C2\SC(=S)N(c3cccc(Cl)c3)C2=O)cc(C(=O)O)c1O [Thioxothiazolidinone derivative, 17]	5.14	
COc1cc(/C=C2\SC(=S)N(c3ccc(Cl)cc3)C2=O)cc([N+](=O)[O-])c1O [Thioxothiazolidinone derivative, 4]	5.27	
COc1cc(/C=C2\SC(=S)N(c3cccc(Cl)c3)C2=O)cc([N+](=O)[O-])c1O [Thioxothiazolidinone derivative, 1]		pIC50 [2]: < 4.30; pIC50 [3]: 5.43; pIC50 [4]: < 4.30; pIC50 [5]: 5.28; pIC50 ([1]; pH 6): 5.37; pIC50 ([1]; pH 7): 5.39; pIC50 [6]: 5.03; pIC50 [7]: 5.41
